This is an account of results in article PMC5727262, “Molecular mechanism of K65 acetylation-induced attenuation of Ubc9 and the NDSM interaction” (Scientific Reports, 2017).

Usually Kd stands for the equilibrium constant for the complex coming apart.

Each structure is given as a SMILES string. Peptide text beside a SMILES is read from it.

One assay has as its target T1, Ubc9 (WT) (Homo sapiens, UniProt P63279).
T1 construct: made in house; host or cells: E. coli (stated as BL21 (DE3) for the acetylated variant)
The assay can be described thus: ITC binding of sumoylation-motif peptides to WT Ubc9. The conditions noted are these: 25 °C, pH 8.0, 20 mM potassium phosphate, 100 mM NaCl, 1:1 binding stoichiometry assumed, triplicate measurements. On the procedure: (§1) ITC binding experiments were used to quantify the effect of Ubc9 acetylation on NDSM substrate binding (Fig. 2A). […] The dissociation constants for Elk1 and CBP were 70 and 57 μM, respectively (Fig. 2C and D), which were roughly similar to the dissociation constant of 56 μM obtained for the more acidic Calpain2 (Fig. 2E). Contrary to our expectations, RanGAP1 bound more strongly than the NDSMs with a dissociation constant of 13 μM. […] Similarly, not every acidic residue from the NDSM contributed equally to Ubc9 binding and even positions ×1 and ×2 could be potentially deciding factors. We exploited the long acidic stretch of Calpain2 in additional studies described below to explain this phenomenon. […] The observed switching from exothermic versus endothermic binding of the NDSM versus SM containing peptides is surprising. We speculate that the long negatively charged tail of NDSM may interact with Ubc9 in such a way that it free up more Ubc9-bound water molecules, resulting in an overall entropy increase. More work need to be done to fully understand its implication in binding mechanism.
(§2) Figure 2 Effect of K65 acetylation on Ubc9 affinity for substrates. (A) Summary of the thermodynamic parameters obtained from triplicate isothermal titration calorimetry (ITC) measurements. Representative ITC thermograms for Ubc9 binding to the RanGAP1 (B), Elk1 (C), CBP (D), and Calpain2 (E) peptides. The heat absorbed (or released) post-injection, after correcting for the heat of dilution, is shown in lower panels. […]
(§3) The ITC experiments were repeated twice at 25 °C by a controlled 2 μl addition of peptide to 200 μl of WT or Ac-Ubc9K65 in pH 8.0 buffer containing 20 mM potassium phosphate and 100 mM NaCl using an iTC200 calorimeter (GE Healthcare, Parsippany, NJ, USA). The first data point of each experiment was excluded from analysis and the baseline-corrected data were analyzed using Origin 7.0 software assuming 1:1 binding stoichiometry.

The target of a further assay is T2, Ac-Ubc9K65 (Homo sapiens, UniProt P63279).
T2 construct: made in house; host or cells: E. coli BL21 (DE3) with pAcKRS-3 and pCDF PylT-1-Ubc9 (amber codon at K65), fed acetyl-lysine
T2 sequence (P63279 2-158): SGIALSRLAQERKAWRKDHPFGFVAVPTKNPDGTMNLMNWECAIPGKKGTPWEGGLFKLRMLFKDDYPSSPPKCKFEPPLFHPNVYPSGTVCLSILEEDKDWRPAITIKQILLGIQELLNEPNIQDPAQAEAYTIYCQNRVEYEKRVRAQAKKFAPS
As to the kind of experiment: ITC binding of sumoylation-motif peptides to K65-acetylated Ubc9. The following applies: 25 °C, pH 8.0, 20 mM potassium phosphate, 100 mM NaCl, 1:1 binding stoichiometry assumed, triplicate measurements. The method, then:
as §1, §2, §3

T1 sequence (P63279 whole entry): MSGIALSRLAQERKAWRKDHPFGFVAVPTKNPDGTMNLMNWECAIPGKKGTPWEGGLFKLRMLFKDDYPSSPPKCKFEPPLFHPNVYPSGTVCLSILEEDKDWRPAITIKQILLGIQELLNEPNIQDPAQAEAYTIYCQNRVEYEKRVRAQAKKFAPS

For `CC(C)[C@H](NC(=O)[C@H](CCC(=O)O)NC(=O)[C@@H](NC(=O)[C@H](CCCCN)NC(=O)[C@@H](NC(=O)[C@H](CCC(=O)O)NC(=O)[C@@H]1CCCN1C(=O)[C@H](CCCCN)NC(=O)[C@H](CCCCN)NC(=O)[C@H](CCC(=O)O)NC(=O)[C@@H](N)CC(=O)O)C(C)C)C(C)C)C(=O)N[C@@H](CCCCN)C(=O)N[C@@H](CCC(=O)O)C(=O)N[C@@H](CCC(=O)O)C(=O)N[C@@H](CCC(=O)O)C(=O)N[C@@H](CCC(=O)O)C(=O)N[C@@H](CO)C(=O)N[C@@H](CO)C(=O)N[C@@H](CO)C(=O)N[C@@H](CC(N)=O)C(=O)O` [CBP] (H-DEKKPEVKVEVKEEEESSSN-OH), the Kd is 57.4 ± 2.8 µM at Ubc9 (WT) and 105 µM at Ac-Ubc9K65.
Turning to `CC[C@H](C)[C@H](NC(=O)[C@H](C)NC(=O)[C@H](CCCCN)NC(=O)[C@@H](NC(=O)[C@H](CCCCN)NC(=O)[C@H](CC(=O)O)NC(=O)[C@H](CCC(=O)O)NC(=O)[C@H](CO)NC(=O)[C@H](CCCCN)NC(=O)[C@H](CC(C)C)NC(=O)[C@H](CC(C)C)NC(=O)CNC(=O)[C@H](CCSC)NC(=O)[C@H](Cc1c[nH]cn1)NC(=O)[C@@H](NC(=O)[C@@H](N)CC(C)C)C(C)C)C(C)C)C(=O)N[C@@H](C)C(=O)N[C@@H](CC(N)=O)C(=O)N[C@@H](CC(C)C)C(=O)N[C@@H](Cc1ccc(O)cc1)C(=O)O` [RanGAP1, reference compound] (H-LVHMGLLKSEDKVKAIANLY-OH), the results for the Kd on Ubc9 (WT) and at Ac-Ubc9K65 were 13.5 ± 0.9 µM and 13.5 ± 2.2 µM, respectively.
As to `CC(C)C[C@H](NC(=O)[C@H](CCC(=O)O)NC(=O)[C@H](CCC(=O)O)NC(=O)[C@H](CCCCN)NC(=O)[C@@H]1CCCN1C(=O)CNC(=O)[C@H](CCC(=O)O)NC(=O)[C@@H](NC(=O)[C@H](CCCCN)NC(=O)[C@@H](NC(=O)[C@H](CCC(=O)O)NC(=O)[C@@H]1CCCN1C(=O)[C@@H]1CCCN1C(=O)[C@H](CC(C)C)NC(=O)[C@H](C)NC(=O)[C@@H](N)CCCNC(=N)N)C(C)C)C(C)C)C(=O)N[C@@H](CCC(=O)O)C(=O)N[C@H](C(=O)N[C@@H](C)C(=O)NCC(=O)O)C(C)C` [Elk1] (H-RALPPEVKVEGPKEELEVAG-OH), the Kd came to 70.2 ± 1.3 µM at Ubc9 (WT) and 103 µM at Ac-Ubc9K65.
As to `CC[C@H](C)[C@H](NC(=O)[C@H](CC(C)C)NC(=O)[C@H](Cc1ccc(O)cc1)NC(=O)[C@H](CCC(N)=O)NC(=O)[C@@H]1CCCN1)C(=O)N[C@@H](CCCCN)C(=O)N[C@@H](CC(C)C)C(=O)N[C@@H](CCC(=O)O)C(=O)N[C@@H](CCC(=O)O)C(=O)N[C@@H](CCC(=O)O)C(=O)N[C@@H](CC(=O)O)C(=O)N[C@@H](CCC(=O)O)C(=O)N[C@@H](CC(=O)O)C(=O)N[C@@H](CCC(=O)O)C(=O)N[C@@H](CCC(=O)O)C(=O)N[C@@H](CC(=O)O)C(=O)NCC(=O)N[C@@H](CCC(=O)O)C(=O)N[C@@H](CO)C(=O)NCC(=O)N[C@@H](CS)C(=O)N[C@H](C(=O)O)[C@@H](C)O` [Calpain2] (H-PQYLIKLEEEDEDEEDGESGCT-OH), the Kd was found to be 55.8 ± 3.3 µM at Ubc9 (WT) and 80.3 ± 2.7 µM on Ac-Ubc9K65.
